Laboratory results taken from patent US20180220646A1, “AMS-Free Adjuvants for Water Conditioning and Agricultural Formulations” (RHODIA OPERATIONS, priority 2017, published 2018).

Legend:
Assay in all cases: Field plot weed control study, % control
Type in all cases: in vivo
Details in all cases: adjuvant use rate 1.0% wt/wt with glyphosate baseline
Amaranthus sp. (LIUSS) = system: Amaranthus sp. (LIUSS)
Description: (§1) The efficacy evaluation was conducted by a field plot study with selected weeds. They are Linum sp. (AMSS), Amaranthus sp. (LIUSS), Helianthus sp. (HELSS), and Zea mays (ZEAMX). The field plot size is 400 square feet (10×40 ft), with three replications arranged in a randomized complete block design. Soil description: 15.3% sand, 53.9% silt, and 30.8% clay; Organic material content: 6.2%; pH: 7.5.
(§2) Product application was made using a backpack spray device, Blackout. Operation pressure: 40 psi. Nozzle: TT 11001; Spray volute: 8.5 gallon/acre.
(§3) Environmental condition during application: Air temperature—87 degree F.; Relative humidity—39%; Wind—NE, 5 mph; Soil temperature—71 degree F.; Cloud cover—50%.
(§4) Weeds were evaluated for percent control at 14 days and 28 days following application.
(§5) Sliding rating scale used: 0 indicating no control, up to 100 indicating complete control of weed species as compared to the untreated check.

Zea mays (ZEAMX) = system: Zea mays (ZEAMX)
Description: as §1, §2, §3, §4, §5

Linum sp. (AMSS) = system: Linum sp. (AMSS)
Description: as §1, §2, §3, §4, §5

Helianthus sp. (HELSS) = system: Helianthus sp. (HELSS)
Description: as §1, §2, §3, §4, §5

Choline salt of Sulfuric Acid
% Control at 14 days LIUSS (Amaranthus sp. (LIUSS)): 40% | % Control at 28 days LIUSS (Amaranthus sp. (LIUSS)): 43.3% | % Control at 14 days ZEAMX (Zea mays (ZEAMX)): 55% | % Control at 28 days ZEAMX (Zea mays (ZEAMX)): 83.3% | % Control at 14 days AMSS (Linum sp. (AMSS)): 70% | % Control at 28 days AMSS (Linum sp. (AMSS)): 70% | % Control at 14 days HELSS (Helianthus sp. (HELSS)): 88.3% | % Control at 28 days HELSS (Helianthus sp. (HELSS)): 95%

Choline etidronic acid
% Control at 14 days LIUSS (Amaranthus sp. (LIUSS)): 76% | % Control at 28 days LIUSS (Amaranthus sp. (LIUSS)): 80% | % Control at 14 days ZEAMX (Zea mays (ZEAMX)): 65% | % Control at 28 days ZEAMX (Zea mays (ZEAMX)): 66.7% | % Control at 14 days AMSS (Linum sp. (AMSS)): 70% | % Control at 28 days AMSS (Linum sp. (AMSS)): 70% | % Control at 14 days HELSS (Helianthus sp. (HELSS)): 91.7% | % Control at 28 days HELSS (Helianthus sp. (HELSS)): 84%

Choline Citrate
% Control at 14 days LIUSS (Amaranthus sp. (LIUSS)): 71.7% | % Control at 28 days LIUSS (Amaranthus sp. (LIUSS)): 86.7% | % Control at 14 days ZEAMX (Zea mays (ZEAMX)): 68.3% | % Control at 28 days ZEAMX (Zea mays (ZEAMX)): 90% | % Control at 14 days AMSS (Linum sp. (AMSS)): 61.7% | % Control at 28 days AMSS (Linum sp. (AMSS)): 63.3% | % Control at 14 days HELSS (Helianthus sp. (HELSS)): 89.3% | % Control at 28 days HELSS (Helianthus sp. (HELSS)): 95%

C[N+](C)(C)C.C[N+](C)(C)C.O=S(=O)([O-])[O-] [Tetramethylamine Sulfate]
% Control at 14 days LIUSS (Amaranthus sp. (LIUSS)): 46.7% | % Control at 28 days LIUSS (Amaranthus sp. (LIUSS)): 46.7% | % Control at 14 days ZEAMX (Zea mays (ZEAMX)): 56.7% | % Control at 28 days ZEAMX (Zea mays (ZEAMX)): 85% | % Control at 14 days AMSS (Linum sp. (AMSS)): 51.7% | % Control at 28 days AMSS (Linum sp. (AMSS)): 58.3% | % Control at 14 days HELSS (Helianthus sp. (HELSS)): 86.7% | % Control at 28 days HELSS (Helianthus sp. (HELSS)): 85%
